Like-named read-outs stand apart in the source and are kept apart here.
Assays:
Type in all cases: cell-based
[1] = tested on: DMS-53 cells; assay: CTG Assay (CellTiter-Glo Luminescent Cell Viability Assay), DMS-53; details: Homo sapiens
Method: (§1) Cell proliferation was measured using the CellTiter-Glo® Luminescent Cell Viability Assay. The assay involved the addition of a single reagent (CellTiter-Glo® Reagent) directly to cells cultured in serum-supplemented medium. DMS-53 (ATCC, CRL-2062), MV4-11 (ATCC, CRL-9591), MCF-7 (ATCC, HTB-22) and ZR-75-1 (ATCC, CRL-1500) cells were cultured according to ATCC recommendations and were seeded at 20,000 cells per well.
(§2) Each compound evaluated was prepared as a DMSO stock solution (10 mM). For DMS-53 and MV4-11 cell lines, Compounds 1 and 5a were tested in triplicate using the respective IC50 concentrations indicated in Table 2. The MCF-7 combination assay was performed in duplicate with a 10-point serial dilution curve (1:3 dilution) for Compounds 1 and 5a, and a 10-point serial dilution curve (1:5 dilution) when treated in combination. The highest compound concentration was 10 μM with a 0.1% final DMSO concentration. Plates were incubated at 37° C., 5% CO2 for 72 h and then equilibrated at room temperature for approximately 30 min. […] Luminescence (RLU (relative light unit)) was recorded using a SpectraMAX, M5e plate reader according to CellTiter-Glo protocol. Percent inhibition was calculated using the following formula: % inhibition=(RLU*100/(RLU of the cell background)). IC50 of each compound was calculated using GraphPad Prism by nonlinear regression analysis.

[2] = tested on: MV4-11 cells; assay: CTG Assay (CellTiter-Glo Luminescent Cell Viability Assay), MV4-11; details: Homo sapiens
Method: as §1, §2

[3] = tested on: ZR-75-1 breast cancer cells; assay: CTG Assay (CellTiter-Glo Luminescent Cell Viability Assay), ZR-75-1; details: Homo sapiens, 72 h
Method: as §1, §2

[4] = tested on: MCF-7 breast cancer cells; assay: CTG Assay (CellTiter-Glo Luminescent Cell Viability Assay), MCF-7 combination assay; details: Homo sapiens, MCF7, 72 h, 10-point dilution, top 10 μM
Method: as §1, §2

[5] = single agent, IC50 used as test concentration, read-out: Concentration (respective IC50 concentration)
[6] = read-out: Absolute IC50 Based on % Inhibition
[7] = read-out: Relative IC50 Based on % Inhibition

Compound: C=CCn1c(=O)c2cnc(Nc3ccc(N4CCN(C)CC4)cc3)nc2n1-c1cccc(C(C)(C)O)n1 [Compound 1]
- inhibition at 0.65 µM ([1]; 650 nM, 72 h, triplicate): 37%
- IC50 [1, 5]: 650 nM
- inhibition at 0.015 µM ([2]; 15 nM, 72 h, triplicate): 37%
- IC50 [2, 5]: 15 nM
- IC50 [3, 6]: 1770 nM
- IC50 [3, 7]: 1240 nM
- IC50 [4, 6]: 346 nM
- IC50 [4, 7]: 307 nM
